According to ChEMBL document CHEMBL1201862, “PubChem BioAssay data set” (2004):
Calls of active or inactive are those of the source. Rule as the data show it, for most assays here: actives have a measured EC50 and inactives only a lower limit.

Legend:
[1] = target: T1, Zinc finger protein mex-5 (Caenorhabditis elegans, UniProt Q9XUB2); assay: MEX-5/TCR-2 RNA interaction inhibitors, dose response, biochemical, C. elegans, fluorescence polarization (AID 1960)
T1 sequence (Q9XUB2 whole entry): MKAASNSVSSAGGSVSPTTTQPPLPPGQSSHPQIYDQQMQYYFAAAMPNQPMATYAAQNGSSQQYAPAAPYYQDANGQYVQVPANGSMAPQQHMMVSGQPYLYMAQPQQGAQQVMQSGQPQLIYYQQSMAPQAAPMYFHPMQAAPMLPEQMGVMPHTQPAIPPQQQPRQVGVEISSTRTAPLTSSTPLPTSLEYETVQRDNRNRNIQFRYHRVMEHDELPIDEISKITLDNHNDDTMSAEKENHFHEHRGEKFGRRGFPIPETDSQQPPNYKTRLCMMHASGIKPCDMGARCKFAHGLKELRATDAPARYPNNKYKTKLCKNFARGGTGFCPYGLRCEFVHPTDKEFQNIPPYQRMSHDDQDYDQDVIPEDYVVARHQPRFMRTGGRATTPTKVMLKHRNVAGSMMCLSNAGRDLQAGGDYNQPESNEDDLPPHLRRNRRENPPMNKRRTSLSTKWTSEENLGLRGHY

[2] = target: T2, RNA-binding protein pos-1 (Caenorhabditis elegans, UniProt G5EF15); assay: inhibitors of POS-1/mex-3 RNA binding, dose response, biochemical, fluorescence polarization (AID 1964);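 also: purified POS-1 fused to maltose binding protein made in E. coli; potency of compounds blocking POS-1 binding to fluorescent RNA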
T2 sequence (G5EF15 whole entry): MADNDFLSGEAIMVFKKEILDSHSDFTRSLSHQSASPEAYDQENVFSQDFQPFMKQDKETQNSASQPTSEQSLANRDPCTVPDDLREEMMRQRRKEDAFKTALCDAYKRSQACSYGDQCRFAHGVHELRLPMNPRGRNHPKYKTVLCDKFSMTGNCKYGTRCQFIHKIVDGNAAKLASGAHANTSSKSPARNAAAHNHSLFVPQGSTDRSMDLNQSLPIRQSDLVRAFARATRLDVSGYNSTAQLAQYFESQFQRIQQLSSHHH

[3] = target: Luciferin 4-monooxygenase (Photinus pyralis, UniProt P08659); assay: firefly luciferase enzyme inhibitors, dose response, biochemical, luminescence (AID 1891)
[4] = Luminescence Cell-Based Dose Confirmation HTS to Identify Inhibitors of Platelet Dense Granule Release. [Related pubchem assays: 1663 (Primary HTS), 1678 (Summary of Project)]; assay type: functional
H9c2 = assay: cells; assay type: functional, cell-based; conditions: Rattus norvegicus, H9c2, Myocardium;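 also: confirmatory concentration-response retest of ultra-high-throughput screening hits for modulation of myocardial damage; cell death induced by hydrogen peroxide oxidative stress; compound pretreatment for 60 min then peroxide exposure for 2 h; potency is for protecting the cells against peroxide damage rather than for killing them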
H4 = assay: Luminescence Cell-Based Dose Response HTS to Identify Activators of 5'UTR Stem-Loop Driven Prion Protein mRNA Translation in H4 Neuroglioblastoma Cells. [Related pubchem assays: 1829 (Project Summary), 1814 (Primary HTS)]; assay type: functional; conditions: Homo sapiens
[5] = Luminescence Cell-Based Dose Confirmation HTS to Identify Activators of 5'UTR Stem-Loop Driven Alpha-Synuclein mRNA Translation in H4 Neuroglioblastoma Cells. [Related pubchem assays: 1829 (Project Summary), 1814 (Primary HTS)]; assay type: functional
Fatty acid synthase [6] = target: T3, Fatty acid synthase (Homo sapiens, UniProt P49327); assay: FAS thioesterase domain inhibitors, dose response, biochemical, kinetic fluorescence intensity (AID 624326); assay type: functional;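 also: rate of fluorescence rise from hydrolysis of a fluorogenic O-methyl fluorescein ester substrate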
[7] = Luminescence Cell-Based Dose Response HTS to Identify Activators of Luciferase Translation or Activity in H4 […] Cells. [Related pubchem assays: 1829 (Project Summary), 1814 (Primary HTS)]; assay type: functional
Fatty acid synthase [8] = target: T3, Fatty acid synthase; assay: FAS thioesterase domain inhibitors, dose response, biochemical, endpoint fluorescence intensity, uHTS hits (AID 624327); assay type: functional;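 also: fluorescence from hydrolysis of an O-methyl fluorescein acyl ester substrate by the enzyme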
[9] = HEp-2 cell cytotoxicity, dose response, cytotoxicity control for RSV inhibitor project, HTS (AID 2410); assay type: functional; conditions: human respiratory syncytial virus
[10] = cytotoxicity toward NIH3T3 fibroblasts, dose response, counter-screen, cell-based, ATP luminescence, mouse fibroblasts (AID 2010); assay type: functional;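 also: cells exposed to compound for about 90 hours before reading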
[11] = inhibitors of intracellular T. cruzi replication, confirmation, NIH3T3 host cells, beta-gal luminescence (AID 2044); assay type: functional, cell-based;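 also: intracellular parasites grown in NIH/3T3 mouse fibroblasts as host cells; luminescent beta-galactosidase reporter signal from transgenic T. cruzi replicating inside host cells; inhibitors lower the luminescence signal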
Protein RecA = target: T4, Protein RecA (Mycobacterium tuberculosis, UniProt P9WHJ3); assay: Fluorescence Cell-Free Homogeneous Dose Retest to Identify Inhibitors of RecA-Intein Splicing Activity. [Related pubchem assays (depositor defined):AID2097, AID2223, AID489010, AID492950]; assay type: functional
T4 sequence (P9WHJ3 whole entry): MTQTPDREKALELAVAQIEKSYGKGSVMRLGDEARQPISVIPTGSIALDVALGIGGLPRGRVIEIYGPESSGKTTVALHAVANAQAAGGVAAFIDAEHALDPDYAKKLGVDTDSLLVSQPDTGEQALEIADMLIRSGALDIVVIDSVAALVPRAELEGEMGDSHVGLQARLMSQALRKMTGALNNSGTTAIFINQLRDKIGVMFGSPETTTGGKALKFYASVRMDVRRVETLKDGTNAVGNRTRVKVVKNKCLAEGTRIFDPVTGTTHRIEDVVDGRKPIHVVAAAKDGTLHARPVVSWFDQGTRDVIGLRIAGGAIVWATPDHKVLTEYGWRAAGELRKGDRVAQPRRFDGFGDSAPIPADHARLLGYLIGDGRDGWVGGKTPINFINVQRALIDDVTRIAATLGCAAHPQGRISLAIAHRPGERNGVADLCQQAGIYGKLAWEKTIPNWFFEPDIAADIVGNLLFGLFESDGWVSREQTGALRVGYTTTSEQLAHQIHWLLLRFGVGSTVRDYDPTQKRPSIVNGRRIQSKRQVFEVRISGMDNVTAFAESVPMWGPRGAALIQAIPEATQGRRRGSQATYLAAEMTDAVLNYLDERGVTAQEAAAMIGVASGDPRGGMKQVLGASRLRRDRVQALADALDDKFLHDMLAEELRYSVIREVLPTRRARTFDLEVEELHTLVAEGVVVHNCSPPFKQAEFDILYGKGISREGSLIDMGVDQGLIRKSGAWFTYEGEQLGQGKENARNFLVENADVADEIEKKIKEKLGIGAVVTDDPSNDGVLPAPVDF

[12] = target: T5, Replicative DNA helicase DnaB (Mycobacterium tuberculosis, UniProt P9WMR3); assay: DnaB intein splicing inhibitors, dose response, biochemical, cell-free fluorescence (AID 449749); assay type: functional
T5 sequence (P9WMR3 whole entry): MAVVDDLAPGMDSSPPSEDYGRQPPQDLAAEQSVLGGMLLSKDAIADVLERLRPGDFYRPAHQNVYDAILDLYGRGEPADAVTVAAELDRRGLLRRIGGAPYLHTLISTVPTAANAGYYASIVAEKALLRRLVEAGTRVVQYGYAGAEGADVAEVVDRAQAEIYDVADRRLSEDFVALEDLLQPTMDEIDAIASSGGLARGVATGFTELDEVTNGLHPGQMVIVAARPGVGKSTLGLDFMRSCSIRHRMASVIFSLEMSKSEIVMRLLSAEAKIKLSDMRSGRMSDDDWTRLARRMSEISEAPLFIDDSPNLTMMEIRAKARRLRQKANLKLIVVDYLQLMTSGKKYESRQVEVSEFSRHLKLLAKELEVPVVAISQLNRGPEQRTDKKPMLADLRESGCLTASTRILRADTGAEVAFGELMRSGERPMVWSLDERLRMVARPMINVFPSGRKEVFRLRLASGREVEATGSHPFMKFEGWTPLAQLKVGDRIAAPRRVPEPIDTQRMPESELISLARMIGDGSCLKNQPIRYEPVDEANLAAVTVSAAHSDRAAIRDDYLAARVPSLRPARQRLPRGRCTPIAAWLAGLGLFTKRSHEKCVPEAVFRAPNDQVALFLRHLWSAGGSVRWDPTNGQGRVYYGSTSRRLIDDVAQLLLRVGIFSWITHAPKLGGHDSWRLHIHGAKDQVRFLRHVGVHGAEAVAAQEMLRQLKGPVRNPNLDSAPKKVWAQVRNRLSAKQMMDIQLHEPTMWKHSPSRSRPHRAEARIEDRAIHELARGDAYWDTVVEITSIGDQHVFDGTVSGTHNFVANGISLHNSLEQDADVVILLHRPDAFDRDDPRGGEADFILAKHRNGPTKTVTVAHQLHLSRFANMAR

[13] = target: FAD-linked sulfhydryl oxidase ALR (Homo sapiens, UniProt P55789); assay: inhibitors of human ALR sulfhydryl oxidase, dose response, biochemical, H2O2 detection, luminescence, cherry-pick (AID 493248)
Sequence of FAD-linked sulfhydryl oxidase ALR (P55789 whole entry): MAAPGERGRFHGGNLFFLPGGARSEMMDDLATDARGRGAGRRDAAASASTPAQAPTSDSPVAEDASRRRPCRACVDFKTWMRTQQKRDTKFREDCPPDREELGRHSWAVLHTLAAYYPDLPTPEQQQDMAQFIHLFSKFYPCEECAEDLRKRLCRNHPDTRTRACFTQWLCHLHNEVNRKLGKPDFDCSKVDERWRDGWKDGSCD

Sequence of Luciferin 4-monooxygenase (P08659 whole entry): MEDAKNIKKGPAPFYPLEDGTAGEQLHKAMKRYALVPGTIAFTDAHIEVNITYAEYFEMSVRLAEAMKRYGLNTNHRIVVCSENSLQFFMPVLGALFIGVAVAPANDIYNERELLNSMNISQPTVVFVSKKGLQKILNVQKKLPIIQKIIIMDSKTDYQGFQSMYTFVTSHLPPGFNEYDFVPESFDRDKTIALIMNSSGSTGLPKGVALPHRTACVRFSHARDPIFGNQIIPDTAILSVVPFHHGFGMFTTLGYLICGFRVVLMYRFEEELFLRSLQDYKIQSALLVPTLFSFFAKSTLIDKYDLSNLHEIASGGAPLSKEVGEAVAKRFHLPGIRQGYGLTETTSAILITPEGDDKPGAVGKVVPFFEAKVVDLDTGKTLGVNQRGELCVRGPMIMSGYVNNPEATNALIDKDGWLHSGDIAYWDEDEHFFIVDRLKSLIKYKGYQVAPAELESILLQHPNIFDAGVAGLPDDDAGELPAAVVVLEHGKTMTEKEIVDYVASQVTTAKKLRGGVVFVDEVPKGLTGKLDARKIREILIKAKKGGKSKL
T3 sequence (P49327 whole entry, the tested form may be a part): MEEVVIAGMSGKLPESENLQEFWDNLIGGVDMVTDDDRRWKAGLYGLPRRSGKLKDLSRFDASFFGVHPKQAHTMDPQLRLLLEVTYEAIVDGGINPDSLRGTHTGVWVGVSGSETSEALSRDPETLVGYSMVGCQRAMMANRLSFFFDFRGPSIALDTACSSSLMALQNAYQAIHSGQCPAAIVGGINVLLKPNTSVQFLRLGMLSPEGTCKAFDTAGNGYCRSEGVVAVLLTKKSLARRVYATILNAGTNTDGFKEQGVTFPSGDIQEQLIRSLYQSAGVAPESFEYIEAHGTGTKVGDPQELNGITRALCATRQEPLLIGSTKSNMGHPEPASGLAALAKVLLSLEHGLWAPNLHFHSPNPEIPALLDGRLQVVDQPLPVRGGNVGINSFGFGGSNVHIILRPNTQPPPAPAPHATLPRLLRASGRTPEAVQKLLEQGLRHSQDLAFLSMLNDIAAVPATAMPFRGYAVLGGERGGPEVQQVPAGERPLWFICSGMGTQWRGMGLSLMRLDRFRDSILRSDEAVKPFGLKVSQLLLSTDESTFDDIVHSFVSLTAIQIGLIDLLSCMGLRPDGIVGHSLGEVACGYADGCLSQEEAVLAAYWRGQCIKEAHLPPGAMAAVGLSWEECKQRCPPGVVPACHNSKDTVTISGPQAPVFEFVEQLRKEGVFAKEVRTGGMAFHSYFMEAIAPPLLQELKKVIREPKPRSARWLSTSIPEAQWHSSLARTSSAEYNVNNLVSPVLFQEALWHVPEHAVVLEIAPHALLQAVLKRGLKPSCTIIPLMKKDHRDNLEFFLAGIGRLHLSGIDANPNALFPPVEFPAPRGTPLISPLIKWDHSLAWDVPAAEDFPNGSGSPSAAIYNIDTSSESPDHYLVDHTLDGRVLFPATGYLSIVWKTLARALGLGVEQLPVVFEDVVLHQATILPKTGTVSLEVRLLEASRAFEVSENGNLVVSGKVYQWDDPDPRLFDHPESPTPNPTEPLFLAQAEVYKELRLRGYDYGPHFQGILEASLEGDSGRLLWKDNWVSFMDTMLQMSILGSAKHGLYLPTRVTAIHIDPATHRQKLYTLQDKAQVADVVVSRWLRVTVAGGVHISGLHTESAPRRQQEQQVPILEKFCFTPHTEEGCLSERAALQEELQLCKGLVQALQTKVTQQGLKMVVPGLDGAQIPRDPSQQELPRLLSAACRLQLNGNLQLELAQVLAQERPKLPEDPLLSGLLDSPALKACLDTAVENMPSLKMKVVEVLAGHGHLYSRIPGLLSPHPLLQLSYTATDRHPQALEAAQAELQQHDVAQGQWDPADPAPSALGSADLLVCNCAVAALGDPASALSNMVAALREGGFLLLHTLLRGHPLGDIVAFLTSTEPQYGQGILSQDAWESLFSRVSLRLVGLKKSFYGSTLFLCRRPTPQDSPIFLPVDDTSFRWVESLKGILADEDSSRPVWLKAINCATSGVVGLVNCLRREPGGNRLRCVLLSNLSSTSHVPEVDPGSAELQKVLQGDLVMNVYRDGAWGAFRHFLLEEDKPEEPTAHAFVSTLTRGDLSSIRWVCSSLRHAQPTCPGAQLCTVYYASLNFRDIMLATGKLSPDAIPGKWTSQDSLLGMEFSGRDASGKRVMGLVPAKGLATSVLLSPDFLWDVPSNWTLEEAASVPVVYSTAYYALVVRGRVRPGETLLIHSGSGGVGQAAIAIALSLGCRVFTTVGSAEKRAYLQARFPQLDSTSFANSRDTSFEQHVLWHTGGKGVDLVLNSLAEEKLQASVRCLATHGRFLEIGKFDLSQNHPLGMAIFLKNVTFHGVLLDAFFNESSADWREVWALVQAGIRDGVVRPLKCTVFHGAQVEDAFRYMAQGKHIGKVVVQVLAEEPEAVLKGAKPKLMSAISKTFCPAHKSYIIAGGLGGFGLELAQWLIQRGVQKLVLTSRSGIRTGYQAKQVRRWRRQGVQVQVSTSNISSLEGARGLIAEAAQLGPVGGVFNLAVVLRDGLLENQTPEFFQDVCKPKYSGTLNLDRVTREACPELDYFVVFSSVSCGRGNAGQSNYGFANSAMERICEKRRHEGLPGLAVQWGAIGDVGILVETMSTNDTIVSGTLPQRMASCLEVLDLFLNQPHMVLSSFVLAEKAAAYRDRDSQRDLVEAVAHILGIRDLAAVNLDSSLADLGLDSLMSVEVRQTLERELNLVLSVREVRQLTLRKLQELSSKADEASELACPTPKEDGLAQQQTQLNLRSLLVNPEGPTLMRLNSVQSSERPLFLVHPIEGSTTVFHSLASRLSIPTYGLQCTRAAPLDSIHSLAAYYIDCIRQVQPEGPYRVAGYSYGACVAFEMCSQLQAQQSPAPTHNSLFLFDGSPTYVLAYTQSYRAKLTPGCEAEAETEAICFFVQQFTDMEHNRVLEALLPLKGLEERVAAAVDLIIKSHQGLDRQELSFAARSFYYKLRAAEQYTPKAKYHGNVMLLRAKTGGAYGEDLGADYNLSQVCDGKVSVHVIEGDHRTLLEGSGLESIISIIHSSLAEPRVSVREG

CCOC(=O)C1=C(Nc2ccccc2)S/C(=C\c2cn(CC(=O)N3CCCC3)c3ccccc23)C1=O
EC50 [1]: 26.2 µM (active)
EC50 [2]: 47.5 µM (active)

CCc1nc(N2CCN(C(=O)c3ccco3)CC2)c2oc3ccccc3c2n1
EC50 [3]: > 112 µM (not active)
EC50 [4]: > 112 µM (not active)
IC50 (H9c2): > 79 µM (inactive)

CCOc1cccc2cc(C(=O)NCCC3=CCCCC3)c(=O)oc12
EC50 (H4): 25 µM (active)
EC50 [5]: 7.15 µM (active)
IC50 (Fatty acid synthase [6]): 4.15 µM (active)
EC50 [7]: > 120 µM (not active)
IC50 (Fatty acid synthase [8]): 3.95 µM (active)

O=C(N=Nc1c(O)n(C2OC(=O)c3ccccc32)c2ccccc12)c1ccco1 (configuration not stated)
EC50 (H4): 15 µM (active)
EC50 [5]: 11.5 µM (active)
EC50 [7]: 11.4 µM (active)

Cc1ccc(-n2c(C)nc3c(cnn3-c3ccc(C)c(C)c3)c2=O)cc1C
EC50 (H4): 43.9 µM (active)
EC50 [5]: 10.2 µM (active)
EC50 [7]: 8.78 µM (active)
CC50 [9]: 48.5 µM (active)

Cc1c2c(nc3ccccc13)CCC(C(C)(C)C)C2 (configuration not stated)
EC50 [10]: > 60 µM (not active)
EC50 (H4): 12.7 µM (active)
EC50 [5]: 26.6 µM (active)
EC50 [11]: 3.67 µM (active)
EC50 [7]: 4.26 µM (active)
CC50 [9]: 44.4 µM (active)

COc1ccccc1N1CC(C(=O)Nc2nnc(SCC(=O)NC(C)C)s2)CC1=O (configuration not stated)
EC50 [1]: > 300 µM (not active)
EC50 [2]: > 300 µM (not active)

c1ccc(-c2ccc(-c3n[nH]cc3CN3CCC(N4CCSCC4)CC3)cc2)cc1
EC50 (H4): 12.4 µM (active)
EC50 [5]: 14.4 µM (active)
EC50 [7]: 15.8 µM (active)

CCCn1c(C2CC(=O)N(c3cc(OC)ccc3OC)C2)nc2ccccc21 (configuration not stated)
EC50 [3]: > 112 µM (not active)
EC50 [4]: > 112 µM (not active)

N#CC1=C(N)C(C#N)(C#N)C(c2cccnc2)C2CN(C(=O)OCc3ccccc3)CC=C12 (configuration not stated)
EC50 [3]: > 112 µM (not active)
EC50 (Protein RecA): 2.59 µM (active)
EC50 [4]: 15.6 µM (active)
AC50 [12]: > 380 µM (inactive)

O=C(COc1ccccc1[N+](=O)[O-])Nc1ccc(NC(=O)c2cc3ccccc3o2)cc1
EC50 (H4): > 120 µM (not active)
EC50 [5]: > 120 µM (not active)
EC50 [7]: > 120 µM (not active)

COc1cccc(N2C(=O)/C(=C/c3ccc(C)o3)C(=O)NC2=S)c1
EC50 [1]: 44.5 µM (active)
EC50 [2]: > 300 µM (not active)

COn1c(=O)c(=O)n(O)c2ccccc21
EC50 [3]: > 112 µM (not active)
EC50 [4]: > 112 µM (not active)

COc1cc(C2NC(S)=NC(C)=C2C(=O)Nc2ccc(C)cc2)ccc1O (configuration not stated)
EC50 (H4): 21.8 µM (active)
EC50 [5]: 15.1 µM (active)
EC50 [7]: 22.4 µM (active)

O=C(Nc1cccc(Cl)c1)c1ccc2ncsc2c1
EC50 (H4): 34.6 µM (active)
EC50 [5]: 4.28 µM (active)
EC50 [7]: 91.3 µM (active)

Cc1nn(-c2ccccc2)c(Cl)c1C(=O)NNC(=O)c1ccccc1O
IC50 (H9c2): 13 µM (active)

CN1CCc2c(sc3nc(SCC(=O)NCc4ccco4)n(-c4ccccc4)c(=O)c23)C1
EC50 (H4): 25.5 µM (active)
EC50 [5]: 17.9 µM (active)
EC50 [7]: 10.2 µM (active)

COc1ccccc1OP(=O)(Nc1cccnc1)Oc1ccccc1OC
IC50 (H9c2): > 79 µM (inactive)

CC1(C(=O)Nc2cccc(OC(F)(F)F)c2)Cc2c(-c3ccc(C(N)=O)cc3)ccnc2O1 (configuration not stated)
IC50 (H9c2): > 79 µM (inactive)

CC(=O)c1ccc(-c2cnc3c(NC=O)cc(-c4cccc(NS(C)(=O)=O)c4)cn23)cc1
IC50 (H9c2): > 79 µM (inactive)

CN(C)c1ccc(NC(=O)CN2CCN(S(=O)(=O)c3cc(Cl)ccc3Cl)CC2)cc1
EC50 [3]: > 112 µM (not active)
EC50 [4]: > 112 µM (not active)
AC50 [13]: 2.31 µM (active)

CN1C(=O)C(=Cc2c[nH]c3ccc(Br)cc23)C(=O)N(C)C1=O
EC50 [1]: > 300 µM (not active)
EC50 [2]: > 300 µM (not active)

N#Cc1ccc(OCC(=O)Nc2nc(-c3ccccn3)cs2)cc1
IC50 (H9c2): > 79 µM (inactive)

CCCCNC(=O)Nc1ccc(Br)cn1
EC50 [3]: > 112 µM (not active)
EC50 [4]: > 112 µM (not active)
